Results published in paper PMC12670426 (Journal of Medicinal Chemistry, 2025).
Read-outs that look alike come from different tables or passages of the source.

What was measured:
[1] = biological target: T1, human galectin-1 (Gal-1, full length) (Homo sapiens, UniProt P09382); assay: Competitive fluorescence polarization assay, Gal-1; assay type: binding
T1 construct: Gal-1 is a prototype galectin consisting of a single CRD and was used in full length; 6xHis tag with TEV protease site (N, cleaved yes); made in house; host or cells: BL21 Escherichia coli (pET-15b)
How it was run: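 Competitive fluorescence polarization (anisotropy) with a fluorescent probe; full-length Gal-1 and C-terminal CRD construct of Gal-3. Read after 30–60 min incubation at 25 °C. Kd fitted with Wang's exact cubic competitive model, rmin/rmax fixed from direct binding.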

[2] = Microsomal stability assay, human liver microsomes; assay type: in vitro ADME; conditions: pooled liver microsomes, pH 7.4, human liver microsomes 0.5 mg/mL, NADPH
Method: (§1) Microsomal stability was determined using 0.5 mg/mL of pooled human, mouse, or rat liver microsomes (Thermo Fisher Scientific) in 90 mM TRIS-Cl buffer (pH 7.4) containing 2 mM NADPH and 2 mM MgCl2. Test compounds (10 μM) were added, and the resulting mixture was incubated at 37 °C for 10, 60, 120, and 180 min. The reactions were terminated by the addition of four volumes of ice-cold methanol, followed by vigorous mixing. The samples were left at −20 °C for 30 min and then stored at 4 °C overnight. The next day, samples were centrifuged, and supernatants were diluted with four volumes of 30% methanol in water. Zero time points were prepared by adding ice-cold methanol to the mixture of compounds and cofactors prior to the addition of microsomes. The samples were then analyzed using the Echo-MS system (SCIEX) with MRM transition monitoring, except for compound 3af, which was analyzed by LC–MS/MS as described in the plasma stability assay.

[3] = Microsomal stability assay, mouse liver microsomes; assay type: in vitro ADME; conditions: pooled liver microsomes, pH 7.4, mouse liver microsomes 0.5 mg/mL, NADPH
Method: as §1

[4] = Plasma protein binding assay (rapid equilibrium dialysis), human plasma; assay type: in vitro ADME; conditions: fraction bound, read-out: plasma protein binding Fb human (converted)
Method: Test compound (10 μM) was incubated at 37 °C for 4 h with mouse, rat, or human plasma (Biowest) in the donor well of a rapid equilibrium dialysis plate (Thermo Fisher Scientific). PBS was placed in the acceptor well. To stop the assay, samples were collected from both wells, and an equal volume of plasma was added to the PBS sample, and vice versa. Proteins were then precipitated by adding three volumes of ice-cold methanol. Samples were mixed gently, kept at −20 °C for 30 min, and then stored at 4 °C overnight. The next day, the samples were centrifuged, and the supernatants were diluted with four volumes of 30% methanol in water. The samples were then analyzed using the Echo-MS system (SCIEX) with MRM transition monitoring, except for compound 3af, which was analyzed by LC–MS/MS as described in the plasma stability assay.

[5] = test system: TGFβ-stimulated LX2 hepatic stellate cells; assay: Antifibrotic efficacy: profibrotic gene expression in TGFβ-stimulated LX2 hepatic stellate cells (RT-qPCR); assay type: cell-based, human; conditions: TGFβ-stimulated LX2, 48 h, RT-qPCR normalized to ACTB
Method: LX2 cells were then stimulated with transforming growth factor-β1 (TGFβ1; PeproTech, Thermo Fisher Scientific) at 5 ng/mL to induce profibrotic signaling. […] After 48 h of treatment, cells were harvested into 100 μL RA1 buffer, and total RNA was then isolated using the NucleoSpin 96 RNA Kit (Macherey-Nagel, Düren, Germany) and reverse-transcribed into cDNA using the LunaScript RT SuperMix Kit (New England Biolabs, Ipswich, MA, USA). Quantitative real-time PCR (RT-qPCR) was used to determine mRNA expression levels of selected profibrotic markers: αSMA (ACTA2), collagen α-2(I) chain (COL1A2), and fibronectin 1 (FN1), and the housekeeping gene β-actin (ACTB). Amplification was carried out using Luna Universal qPCR Master Mix (New England Biolabs) and primer pairs for individual genes as follows: ACTA2: forward primer: [NT], reverse primer: [NT]; COL1A2: forward primer: [NT], reverse primer: [NT]; FN1: forward primer: [NT], reverse primer: [NT]; ACTB: forward primer: [NT], reverse primer: [NT] (Eurofins Genomics). Data were normalized to ACTB expression and analyzed using the ΔΔCt method.

T1 sequence (P09382 2-135): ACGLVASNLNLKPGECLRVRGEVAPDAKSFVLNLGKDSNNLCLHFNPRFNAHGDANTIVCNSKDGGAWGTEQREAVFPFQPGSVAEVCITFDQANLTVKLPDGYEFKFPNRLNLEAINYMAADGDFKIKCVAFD

IC50 ([1]; CSV supplement, unrounded mean, read-out: Gal1_IC50_mean_uM): 4.34 µM
Kd ([1]; CSV supplement, unrounded mean, read-out: Gal1_Kd_mean_uM): 2.18 µM
Kd ([1]; competitive fluorescence polarization, mean ± SD, read-out: Kd Gal-1): 2.2 ± 0.3 µM
IC50 ([1]; four-parameter logistic model, mean ± SD, read-out: IC50 Gal-1): 4.3 ± 0.2 µM
microsomal CLint at 10 μM [2]: < 2 µL/min/mg
microsomal CLint at 10 μM [3]: < 2 µL/min/mg
fraction unbound at 4 h, 10 μM [4]: 0.55
SMILES: CC(=O)N(c1cc(C(=O)O)cc2[nH]ccc12)[C@@H]1O[C@H](CO)[C@@H](S[C@@H]2O[C@H](CO)[C@H](O)[C@H](n3cc(-c4cccc(F)c4)nn3)[C@H]2O)[C@H](O)[C@H]1O [Compound 11, N-[4-S-(3-Deoxy-3-(4-(3-fluorophenyl)-1H-1,2,3-triazol-1-yl)-β-D-galactopyranosyl)-4-thio-β-D-glucopyranosyl]-N-(6-carboxy-1H-indol-4-yl)acetamide]
ACTA2 mRNA expression [5]: dose-dependent downregulation
COL1A2 mRNA expression [5]: dose-dependent downregulation
FN1 mRNA expression [5]: dose-dependent downregulation
